This is an account of results in patent US9572786B2, “Use of capsiate or dihydrocapsidate” (Catholic University Industry Academy Cooperation Foundation, priority 2007, dated 2017).

The subject of one experiment is COX-2. Nature of the experiment: UV-induced COX-2 expression in mouse skin tissue, immunohistochemical staining. The following applies: hairless mouse; 200 μL of 1 mM topically; 4 times of UV irradiation. It is filed as in vivo. As for the experimental part:
In order to confirm the in vitro experiment result performed on the human keratinocyte HaCaT cells in an animal model, experiment was carried out as follows using hairless mouse (SKH-1). Test groups were as follows: non-treated group—treated with acetone only without UV irradiation; test group A—treated with 200 μL of 1 mM capsiate dissolved in acetone every 24 hours without UV irradiation; control group—treated with UV and acetone; test group B—treated with UV and 200 μL of 1 mM capsiate dissolved in acetone every 24 hours (Unspecified conditions are the same as in Examples 5-7.).
Capsiate was applied on the back of the mouse. 1 hour later, UV was irradiated at an intensity of 2.5 kJ/m^2. 1 hour later, capsiate was applied again at the same concentration in order to prevent rash which may occur immediately after UV irradiation. Thereafter, capsiate was applied every 24 hours and UV irradiation was carried out every other day at an intensity of 2.5 kJ/m^2 for 4 times. In order to investigate the change of tissue and intracellular mechanism (signaling), the mouse was euthanized 1 hour after the final UV irradiation. Skin tissue was taken from the back of the mouse and subjected to skin biopsy following observation.
In order to reconfirm this effect, immunohistochemical staining was carried out as follows. […]

The next experiment deals with Sprague dawley (SD) rats. Nature of the experiment: Retinal vascular permeability in streptozotocin induced diabetic retinopathy. The following applies: intravitreally injected 1-week after streptozotocin, observed at 3 weeks with dextran FITC. It counts as in vivo, rat. As for the experimental part: Diabetes are induced by performing intraperitoneal injection of 60 mg/kg of streptozotocin (Sigma, St Louis, Mo., USA) into 8-week-old male Sprague dawley (SD) rats (250 g). 3 days later, serum glucose level was measured and rats having serum glucose level of […] and more are selected and used in experiments. Capsiate or capsaicin was intravitreally injected 1-week after the injection of streptozotocin, respectively. 3 weeks after the injection of streptozotocin, 0.5 ml of dextran FITC (25 mg/ml, MW 40K, Sigma, St Louis, Mo., USA) was injected through tail vein of tested rats to imaging retinal vascular pattern. Retinal tissues of the rats are isolated and observed by fluorescent microscopy (Olympus, Tokyo, Japan). The increase of retinal vascular permeability is observed in nonproliferative diabetic retinopathy, proliferative diabetic retinopathy and diabetic macular edema and result from cracks in vascular vessel due to breakdown of blood-retinal barrier (BRB).

Another experiment concerns Lck. Nature of the experiment: Tyrosine phosphorylation in T cells, Western blotting with anti-PY antibody. It counts as cell-based, C57/BL6 mouse. The following applies: mouse spleen T cells; 5 and 25 uM; α-CD3 and α-CD4 or α-CD3. The protocol: Western blotting was carried out using anti-tyrosine phosphorylation (anti-PY) antibody in order to investigate the mechanism by which the proliferation of T cells is inhibited by capsiate.
Specifically, 5×10^5 of the T cells isolated in Example 14-1 was placed on a 96-well plate and capsiate was treated at concentrations of 5 and 25 uM. After treating with 2 μg/mL α-CD3 and α-CD4, or 2 μg/mL α-CD3, followed by incubation for 10 minutes in ice and then incubation for 10 minutes at 37° C., centrifuge was carried out. The cells obtained from the centrifuge was lysed using RIPA buffer containing 2 mM EDTA, 137 mM NaCl, 20 mM Tris-HCl (pH 8.0), 1 mM sodium vanadate, 10 mM NaF, 1 mM phenylmethanesulfonyl fluoride (PMSF), 1% NP-40, 10% glycerol and protease inhibitor cocktail, and subjected to SDS-PAGE electrophoresis using 10% acrylamide gel in order to isolate the proteins. The isolated proteins were transferred to a nylon membrane and tyrosine phosphorylated proteins were separated using mouse anti-PY antibody (Becton Dickison, USA) and anti-mouse IgG-HRP conjugation antibody (1; 10,000, Zymed) as the secondary antibody. The isolated proteins were detected by ECL (Amersham, USA) and visualized using RAS 3000 imaging system (Fuji Film, Japan).
For orientation: In western blotting, separated proteins are transferred to a membrane and probed.

A further experiment concerns TNF-α. Nature of the experiment: UV-induced pro-inflammatory cytokine mRNA, RT-PCR: TNF-α. It is filed as cell-based, human. Conditions: HaCaT cells; 10, 25, 50 μM; UV 100 J/m^2; 4 hours. The protocol: 1×10^6 HaCaT cells were placed on a 100 mm Petri dish and cultured for 24 hours in DMEM containing 10% FBS. Subsequently, the cells were cultured for 24 hours in DMEM containing 1% FBS until starvation. Then, after treating with capsiate at different concentrations (10 μM, 25 μM, 50 μM) for 30 minutes, followed by washing 3 times with PBS, UV was irradiated at an intensity of 100 J/m^2 to induce the production of cytokines. Immediately after the UV irradiation, the cells were washed again with PBS and further cultured for 4 hours in DMEM containing 1% FBS, which was treated with capsiate at the same concentration as in the pre-treatment.
Then, the degree of mRNA expression for IL-6, IL-8 and TNF-α induced mainly in the skin by the UV irradiation was evaluated by RT-PCR in order to measure the inhibition effect against the pro-inflammatory cytokines.
RNAs were extracted from the cells of each test group using Trizol (Invitrogen, USA) and used as template for PCR (PTC-225 Peltier thermal cycler, MJ Research, USA) to prepare cDNAs for each test group. Using the resultant cDNAs as template, the degree of mRNA expression for IL-6, IL-8 and TNF-α was measured by RT-PCR (Roter Gene 6000 series, Corbett Research, Australia) using commercial IL-6, IL-8 and TNF-α primers. […]

SMILES strings stand for the structures.

For the compound `COc1cc(COC(=O)CCCC/C=C/C(C)C)ccc1O` [capsiate], in the experiment on COX-2, the “UV-induced increase of COX-2 in mouse skin tissue (immunohistochemical staining)” value is reported as “effectively inhibited”. The “increment of retinal vascular permeability” value in the experiment on Sprague dawley (SD) rats is recorded as “inhibited”. Moreover, in the experiment with Lck, the “tyrosine phosphorylation in T cells” value is listed as “inhibited”. The “expression of TNF-α (mRNA) increased by UV irradiation” value in the experiment with TNF-α is listed as “significantly decreases”.
